20 compounds from patent US11866450B2, “Modulators of Cystic Fibrosis Transmembrane Conductance regulator, pharmaceutical compositions, methods of treatment, and process for making the modulators” (priority 2018, dated 2024) can be followed below.

Some results are limits rather than exact numbers.

For this assay, the target named is CFTR-mediated chloride transport (Homo sapiens, UniProt P13569). In kind it is cell-based. Particulars: enteroid cells incubated with test compound 18-24 hours, acute 10 μM forskolin and 300 nM Compound III; for Max. Activity: % of chloride transport with 3 μM Compound A, 3 μM Compound II and 300 nM acute Compound III triple combination control. In outline:
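Membrane-potential fluorescence AUC over 15 min quantified CFTR chloride transport after acute forskolin (10 μM), IBMX (100 μM) and Compound III (300 nM) in chloride-free buffer. Human enteroid cells were pretreated with compound for 18–24 h; % Activity is relative to 3 μM Compound A + 3 μM Compound II + 300 nM Compound III.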

Chain of CFTR-mediated chloride transport (P13569 whole entry, looked up): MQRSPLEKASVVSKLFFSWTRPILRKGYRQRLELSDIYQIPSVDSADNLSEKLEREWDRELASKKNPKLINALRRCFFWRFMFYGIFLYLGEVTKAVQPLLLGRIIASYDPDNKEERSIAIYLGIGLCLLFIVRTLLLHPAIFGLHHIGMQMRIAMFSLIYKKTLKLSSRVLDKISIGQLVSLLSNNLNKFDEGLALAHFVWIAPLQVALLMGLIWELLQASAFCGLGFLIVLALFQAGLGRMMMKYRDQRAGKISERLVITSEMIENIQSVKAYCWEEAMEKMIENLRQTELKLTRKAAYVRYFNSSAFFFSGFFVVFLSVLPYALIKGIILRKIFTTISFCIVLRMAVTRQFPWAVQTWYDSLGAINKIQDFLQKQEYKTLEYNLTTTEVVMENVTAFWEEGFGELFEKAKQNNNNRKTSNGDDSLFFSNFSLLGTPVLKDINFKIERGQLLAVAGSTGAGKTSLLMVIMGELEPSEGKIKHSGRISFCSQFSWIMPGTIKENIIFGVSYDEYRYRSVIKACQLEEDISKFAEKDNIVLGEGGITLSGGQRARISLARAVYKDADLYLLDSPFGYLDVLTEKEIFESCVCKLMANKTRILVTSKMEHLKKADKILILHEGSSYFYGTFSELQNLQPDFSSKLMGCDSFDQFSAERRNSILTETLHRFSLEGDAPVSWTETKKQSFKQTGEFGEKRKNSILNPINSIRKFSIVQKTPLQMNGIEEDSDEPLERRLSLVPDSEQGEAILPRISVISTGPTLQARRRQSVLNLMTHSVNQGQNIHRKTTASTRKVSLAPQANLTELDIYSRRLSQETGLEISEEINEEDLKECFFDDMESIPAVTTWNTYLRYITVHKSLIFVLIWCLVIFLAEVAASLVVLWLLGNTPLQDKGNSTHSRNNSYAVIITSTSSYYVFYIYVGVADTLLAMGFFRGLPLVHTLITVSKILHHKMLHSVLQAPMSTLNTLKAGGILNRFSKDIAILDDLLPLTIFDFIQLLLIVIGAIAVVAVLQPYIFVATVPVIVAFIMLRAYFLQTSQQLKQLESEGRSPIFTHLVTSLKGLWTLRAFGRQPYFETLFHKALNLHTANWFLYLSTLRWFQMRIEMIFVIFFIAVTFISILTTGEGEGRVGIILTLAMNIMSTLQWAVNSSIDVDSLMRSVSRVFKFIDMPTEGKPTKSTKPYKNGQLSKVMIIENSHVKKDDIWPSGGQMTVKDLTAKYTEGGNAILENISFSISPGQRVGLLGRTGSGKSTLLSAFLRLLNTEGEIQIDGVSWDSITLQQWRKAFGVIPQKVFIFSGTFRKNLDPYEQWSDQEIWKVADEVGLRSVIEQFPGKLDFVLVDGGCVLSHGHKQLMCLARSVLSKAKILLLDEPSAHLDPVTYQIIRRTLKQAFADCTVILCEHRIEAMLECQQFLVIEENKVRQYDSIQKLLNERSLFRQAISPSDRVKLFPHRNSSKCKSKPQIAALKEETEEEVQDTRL

On to `CC1(C)C[C@@H]2CN1c1nc(-n3ccc(OCCC4C5(CC5)C45CC5)n3)ccc1C(=O)NS(=O)(=O)c1cccc(n1)NCCO2` (single isomer, unassigned) [Compound 196, 8-[3-(2-{dispiro[2.0.2.1]heptan-7-yl}ethoxy)-1H-pyrazol-1-yl]-12,12-dimethyl-15-oxa-2λ^6-thia-3,9,11,18,23-pentaazatetracyclo[17.3.1.111,14.05,10]tetracosa-1(23),5(10),6,8,19,21-hexaene-2,2,4-trione], for which the EC50 lay within 1 to 3 µM and the “Max. Activity” value was “++ (++ is 30-60%)”.
For the compound `CC1(C)C[C@@H]2CN1c1nc(-n3ccc(OCCC4C5(CC5)C45CC5)n3)ccc1C(=O)NS(=O)(=O)c1cccc(n1)NCCO2` (single isomer, unassigned) [Compound 197, 8-[3-(2-{dispiro[2.0.2.1]heptan-7-yl}ethoxy)-1H-pyrazol-1-yl]-12,12-dimethyl-15-oxa-2λ^6-thia-3,9,11,18,23-pentaazatetracyclo[17.3.1.111,14.05,10]tetracosa-1(23),5(10),6,8,19,21-hexaene-2,2,4-trione], the EC50 is below 1 µM and the “Max. Activity” value is “+++ (+++ is >60%)”.
On to `Cc1cn2nc1S(=O)(=O)NC(=O)c1ccc(-n3ccc(OCCC(C4CC4)C4CC4)n3)nc1N1C[C@H](CCC2)CC1(C)C` (single isomer, unassigned) [Compound 201, 4-[3-(3,3-Dicyclopropylpropoxy)-1H-pyrazol-1-yl]-12,20,20-trimethyl-10λ^6-thia-1,3,9,14,22-pentaazatetracyclo[16.2.1.111,14.02,7]docosa-2(7),3,5,11(22),12-pentaene-8,10,10-trione], for which the EC50 was above 3 µM and the “Max. Activity” value is “+ (+ is <30%)”.
As to `Cc1cn2nc1S(=O)(=O)NC(=O)c1ccc(-n3ccc(OCCC(C4CC4)C4CC4)n3)nc1N1C[C@H](CCC2)CC1(C)C` (single isomer, unassigned) [Compound 202, 4-[3-(3,3-dicyclopropylpropoxy)-1H-pyrazol-1-yl]-12,20,20-trimethyl-10λ^6-thia-1,3,9,14,22-pentaazatetracyclo[16.2.1.111,14.02,7]docosa-2(7),3,5,11(22),12-pentaene-8,10,10-trione], the EC50 is below 1 µM and the “Max. Activity” value is given as “++ (++ is 30-60%)”.
On to `CN1CCC[C@H]2CN(c3nc(-n4ccc(OCCC(C5CC5)C5CC5)n4)ccc3C(=O)NS(=O)(=O)c3cccc1n3)C(C)(C)C2` (single isomer, unassigned) [Compound 203, 8-[3-(3,3-Dicyclopropylpropoxy)-1H-pyrazol-1-yl]-12,12,18-trimethyl-2λ^6-thia-3,9,11,18,23-pentaazatetracyclo[17.3.1.111,14.05,10]tetracosa-1(22),5,7,9,19(23),20-hexaene-2,2,4-trione], for which the EC50 was below 1 µM and the “Max. Activity” value is reported as “+++ (+++ is >60%)”.
The like results for `CN1CCC[C@H]2CN(c3nc(-n4ccc(OCCC(C5CC5)C5CC5)n4)ccc3C(=O)NS(=O)(=O)c3cccc1n3)C(C)(C)C2` (single isomer, unassigned) [Compound 204, 8-[3-(3,3-dicyclopropylpropoxy)-1H-pyrazol-1-yl]-12,12,18-trimethyl-2λ^6-thia-3,9,11,18,23-pentaazatetracyclo[17.3.1.111,14.05,10]tetracosa-1(22),5,7,9,19(23),20-hexaene-2,2,4-trione] were, in that order, above 3 µM and “+ (+ is <30%)”.
`CC1(C)C[C@H]2CCCn3ccc(n3)S(=O)(=O)NC(=O)c3ccc(-n4ccc(OCCC5C(C)(C)C5(C)C)n4)nc3N1C2` (single isomer, unassigned) [Compound 206, 20,20-dimethyl-4-{3-[2-(2,2,3,3-tetramethylcyclopropyl)ethoxy]-1H-pyrazol-1-yl}-10λ^6-thia-1,3,9,14,22-pentaazatetracyclo[16.2.1.111,14.02,7]docosa-2(7),3,5,11(22),12-pentaene-8,10,10-trione]: the EC50 was below 1 µM and the “Max. Activity” value is reported as “+ (+ is <30%)”.
For `CC1(C)C[C@H]2CCCn3ccc(n3)S(=O)(=O)NC(=O)c3ccc(-n4ccc(OCCC5C(C)(C)C5(C)C)n4)nc3N1C2` (single isomer, unassigned) [Compound 207, 20,20-dimethyl-4-{3-[2-(2,2,3,3-tetramethylcyclopropyl)ethoxy]-1H-pyrazol-1-yl}-10λ^6-thia-1,3,9,14,22-pentaazatetracyclo[16.2.1.111,14.02,7]docosa-2(7),3,5,11(22),12-pentaene-8,10,10-trione], the EC50 is below 1 µM and the “Max. Activity” value is on record as “+++ (+++ is >60%)”.
In the case of `C[C@@H]1CC[C@H]2CN(c3nc(N4CCN(CCC(C)(C)C)C4=O)ccc3C(=O)NS(=O)(=O)c3cccc(n3)N1)C(C)(C)C2` (single isomer, unassigned) [Compound 215, 8-[3-(3,3-dimethylbutyl)-2-oxoimidazolidin-1-yl]-12,12,17-trimethyl-2λ^6-thia-3,9,11,18,23-pentaazatetracyclo[17.3.1.111,14.05,10]tetracosa-1(22),5,7,9,19(23),20-hexaene-2,2,4-trione], the EC50 was above 3 µM and the “Max. Activity” value is given as “+ (+ is <30%)”.
Take `C[C@@H]1CC[C@H]2CN(c3nc(N4CCN(CCC(C)(C)C)C4=O)ccc3C(=O)NS(=O)(=O)c3cccc(n3)N1)C(C)(C)C2` (single isomer, unassigned) [Compound 216, 8-[3-(3,3-dimethylbutyl)-2-oxoimidazolidin-1-yl]-12,12,17-trimethyl-2λ^6-thia-3,9,11,18,23-pentaazatetracyclo[17.3.1.111,14.05,10]tetracosa-1(22),5,7,9,19(23),20-hexaene-2,2,4-trione]: the EC50 was below 1 µM and the “Max. Activity” value is “+++ (+++ is >60%)”.
As for `C[C@@H]1CC[C@H]2CN(c3nc(N4CCN(CCC(C)(C)C)C4=O)ccc3C(=O)NS(=O)(=O)c3cccc(n3)N1)C(C)(C)C2` (single isomer, unassigned) [Compound 218, 8-[3-(3,3-dimethylbutyl)-2-oxoimidazolidin-1-yl]-12,12,17-trimethyl-2λ^6-thia-3,9,11,18,23-pentaazatetracyclo[17.3.1.111,14.05,10]tetracosa-1(22),5,7,9,19(23),20-hexaene-2,2,4-trione], the EC50 was above 3 µM and the “Max. Activity” value is on record as “+ (+ is <30%)”.
Turning to `C[C@@H]1CC[C@H]2CN(c3nc(N4CCN(CCC(C)(C)C)C4=O)ccc3C(=O)NS(=O)(=O)c3cccc(n3)N1)C(C)(C)C2` (single isomer, unassigned) [Compound 219, 8-[3-(3,3-dimethylbutyl)-2-oxoimidazolidin-1-yl]-12,12,17-trimethyl-2λ^6-thia-3,9,11,18,23-pentaazatetracyclo[17.3.1.111,14.05,10]tetracosa-1(22),5,7,9,19(23),20-hexaene-2,2,4-trione], the EC50 was below 1 µM and the “Max. Activity” value was “++ (++ is 30-60%)”.
For the compound `CC1(C)C[C@H]2CCNc3cccc(n3)S(=O)(=O)NC(=O)c3ccc(-n4ccc(OCCCC5(C(F)(F)F)CC5)n4)nc3N1C2` (single isomer, unassigned) [Compound 234, 7,7-dimethyl-11-(3-{3-[1-(trifluoromethyl)cyclopropyl]propoxy}-1H-pyrazol-1-yl)-17λ^6-thia-2,8,10,16,22-pentaazatetracyclo[16.3.1.15,8.09,14]tricosa-1(22),9,11,13,18,20-hexaene-15,17,17-trione], the EC50 is below 1 µM and the “Max. Activity” value is given as “++ (++ is 30-60%)”.
`CC1(C)C[C@H]2CCNc3cccc(n3)S(=O)(=O)NC(=O)c3ccc(-n4ccc(OCCCC5(C(F)(F)F)CC5)n4)nc3N1C2` (single isomer, unassigned) [Compound 235, 7,7-dimethyl-11-(3-{3-[1-(trifluoromethyl)cyclopropyl]propoxy}-1H-pyrazol-1-yl)-17λ^6-thia-2,8,10,16,22-pentaazatetracyclo[16.3.1.15,8.09,14]tricosa-1(22),9,11,13,18,20-hexaene-15,17,17-trione]: the EC50 is below 1 µM and the “Max. Activity” value is on record as “+++ (+++ is >60%)”.
For `CC1(C)C[C@@H]2CCCNc3cccc(n3)S(=O)(=O)NC(=O)c3ccc(N4CCN(C[C@H]5CC[C@@H](C(F)(F)F)CC5)C4=O)nc3N1C2` (single isomer, unassigned) [Compound 239], in that order: below 1 µM and “+ (+ is <30%)”.
For the compound `CC1(C)C[C@@H]2CCCNc3cccc(n3)S(=O)(=O)NC(=O)c3ccc(N4CC[C@H](OCCC56CC7CC(CC(C7)C5)C6)C4=O)nc3N1C2` (single isomer, unassigned) [Compound 240], the EC50 is below 1 µM and the “Max. Activity” value is recorded as “++ (++ is 30-60%)”.
Take `CC1(C)C[C@@H]2CCCNc3cccc(n3)S(=O)(=O)NC(=O)c3ccc(N4CC[C@H](OCCC56CC7CC(CC(C7)C5)C6)C4=O)nc3N1C2` (single isomer, unassigned) [Compound 241]: the EC50 is below 1 µM and the “Max. Activity” value is “++ (++ is 30-60%)”.
For `CC1(C)C[C@@H]2CCCNc3cccc(n3)S(=O)(=O)NC(=O)c3ccc(N4CC[C@H](OCCCC5(C(F)(F)F)CC5)C4=O)nc3N1C2` (single isomer, unassigned) [Compound 242], in that order: below 1 µM and “++ (++ is 30-60%)”.
For `CC1(C)C[C@@H]2CCCNc3cccc(n3)S(=O)(=O)NC(=O)c3ccc(N4CC[C@H](OCCCC5(C(F)(F)F)CC5)C4=O)nc3N1C2` (single isomer, unassigned) [Compound 243], in that order: below 1 µM and “+++ (+++ is >60%)”.
In the case of `CC1(C)C[C@@H]2CCCNc3cccc(n3)S(=O)(=O)NC(=O)c3ccc(N4CC[C@H](OCC56CC7CC(CC(C7)C5)C6)C4=O)nc3N1C2` (single isomer, unassigned) [Compound 244], the EC50 is below 1 µM and the “Max. Activity” value was “++ (++ is 30-60%)”.
